From patent US4885245A, “Process for producing L-tryptophan” (Ajinomoto Co., Inc., priority 1984, dated 1989)

Experiments:
[1] = biological target: T1, tryptophan synthetase (TS) of wild strain AJ 12036 (Corynebacterium glutamicum, UniProt P06561); test: TS (TSB) activity of crude enzyme solution of wild strain AJ 12036 with added L-tryptophan; type: biochemical; details: strain AJ 12036 crude enzyme, 20 mM L-Tryptophan added
T1 construct: that of the wild strain (AJ 12036); endogenous in cells; host or cells: wild strain AJ 12036 (FERM-P7559, FERM-BP 734), crude sonicate supernatant
T1 sequence (P06561 1-417): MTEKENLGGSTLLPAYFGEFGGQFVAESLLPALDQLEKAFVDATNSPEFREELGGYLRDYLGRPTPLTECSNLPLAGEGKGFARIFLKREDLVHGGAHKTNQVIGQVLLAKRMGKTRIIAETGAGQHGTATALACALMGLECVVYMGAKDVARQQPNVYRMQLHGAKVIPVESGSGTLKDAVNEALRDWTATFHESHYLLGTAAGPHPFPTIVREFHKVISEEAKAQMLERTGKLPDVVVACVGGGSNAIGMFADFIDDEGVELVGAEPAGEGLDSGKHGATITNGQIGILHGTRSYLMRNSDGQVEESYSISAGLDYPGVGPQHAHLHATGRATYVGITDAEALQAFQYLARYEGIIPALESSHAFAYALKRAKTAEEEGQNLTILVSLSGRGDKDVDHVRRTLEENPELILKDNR
T1 sequence (P06562 1-280 partner): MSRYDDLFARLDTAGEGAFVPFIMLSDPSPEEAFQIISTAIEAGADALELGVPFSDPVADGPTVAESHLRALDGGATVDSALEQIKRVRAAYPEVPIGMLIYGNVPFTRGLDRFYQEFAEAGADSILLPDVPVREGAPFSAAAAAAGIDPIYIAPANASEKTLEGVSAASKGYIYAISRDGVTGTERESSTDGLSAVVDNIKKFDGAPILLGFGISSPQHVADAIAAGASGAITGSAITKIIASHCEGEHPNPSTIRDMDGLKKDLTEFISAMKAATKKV
Procedure: (§1) A specimen strain was cultured in 20 ml of medium for L-tryptophan production (described hereinafter). From the cultured cells, a lysate was prepared by an ultrasonic wave treatment and centrifuged at 32,000×gfor 30 minutes to obtain the supernatant. The supernatant was used as a crude enzyme solution. Using an enzyme reaction solution (1 ml in total amount) consisting of 100 mM tris hydrochloride buffer (pH 7.8), 0.4 mM indole, 30 mM L-serine, 40 μm pyridoxal-5'-phosphate and 180 mM sodium chloride, TSB activity was measured. The reaction was carried out at 30° C. for 30 minutes, 0.1 ml of 1N NaOH was added, the remaining indole was extracted with toluene, color was then formed by an indole reagent and then the color was measured by a spectrophotometer (at […]).

[2] = biological target: T2, tryptophan synthetase (TS) of transformant AJ 12139 (Corynebacterium glutamicum, UniProt P06561); test: TS (TSB) activity of crude enzyme solution of transformant AJ 12139 with added L-tryptophan; type: biochemical, Brevibacterium lactofermentum
T2 construct: plasmid pAJ 319 (pAJ 1844 vector) carrying trpA and trpB of AJ 12030, in TSA-deficient host No. 21
Procedure: as §1

Structure (SMILES): N[C@@H](Cc1c[nH]c2ccccc12)C(=O)O [L-Tryptophan, L-tryptophan]
- activity at 20000 µM ([1]; 0.5 h, read-out: TS activity, relative value in parentheses (0 mM = 100)): 65%
- TS activity (amount of decreased indole in mole/min/mg amount of protein) ([1]; 30° C., 30 minutes, 0 mM control 7.1): 4.6 mole/min/mg amount of protein
- inhibition of TS activity of the transformant (in words) ([2]; in the presence of 20 mM L-tryptophan): inhibited only slightly
- TS activity (amount of decreased indole in mole/min/mg amount of protein) ([2]; strain AJ 12139 crude enzyme, 20 mM L-Tryptophan added, 30° C., 30 minutes, 0 mM control 81.0): 66.4 mole/min/mg amount of protein
- TS activity, relative value in parentheses (0 mM = 100) ([2]; strain AJ 12139 crude enzyme, 20 mM L-Tryptophan added, 30 min): 82
